# Results published in PMC6188138, “Carnosol suppresses patient-derived gastric tumor growth by targeting RSK2” (Oncotarget, 2018).
# pIC50: −log10 of the molar value.
# Molecular target: T1, RSK2 (Homo sapiens, UniProt P51812)
# T1 construct: gene RPS6KA3
# Experiment: in vitro kinase assay with recombinant active RSK2 and ATF1 substrate (Western blot); supported by pull-down of recombinant RSK2 with carnosol-Sepharose 4B beads
# Format: biochemical
# T1 sequence (P51812 whole entry): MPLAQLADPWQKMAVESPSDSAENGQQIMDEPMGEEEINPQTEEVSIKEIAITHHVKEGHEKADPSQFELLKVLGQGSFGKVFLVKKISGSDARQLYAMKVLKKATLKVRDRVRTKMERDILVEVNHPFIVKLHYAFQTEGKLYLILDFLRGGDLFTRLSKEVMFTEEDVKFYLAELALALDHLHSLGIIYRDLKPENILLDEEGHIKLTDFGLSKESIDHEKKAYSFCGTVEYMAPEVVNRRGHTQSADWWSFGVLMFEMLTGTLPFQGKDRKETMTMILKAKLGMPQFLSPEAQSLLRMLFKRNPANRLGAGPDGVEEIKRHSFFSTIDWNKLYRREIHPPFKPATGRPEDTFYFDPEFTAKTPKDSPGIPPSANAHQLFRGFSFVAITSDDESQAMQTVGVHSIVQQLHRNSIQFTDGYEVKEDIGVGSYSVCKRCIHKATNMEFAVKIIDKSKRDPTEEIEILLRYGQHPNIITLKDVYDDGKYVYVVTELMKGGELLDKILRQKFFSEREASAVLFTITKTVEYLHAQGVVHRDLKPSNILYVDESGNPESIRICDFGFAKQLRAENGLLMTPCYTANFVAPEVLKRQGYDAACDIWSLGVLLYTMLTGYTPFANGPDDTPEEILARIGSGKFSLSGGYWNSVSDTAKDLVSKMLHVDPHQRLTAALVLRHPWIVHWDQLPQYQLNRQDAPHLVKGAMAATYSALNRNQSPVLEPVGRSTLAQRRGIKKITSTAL
smiles,measurement,value
CC(C)c1cc2c(c(O)c1O)[C@@]13CCCC(C)(C)[C@@H]1C[C@@H]2OC3=O [Carnosol],pIC50,~5.26
